Data set [1] can be described thus: Forced degradation testing of Levetiracetam tablets and powder blends, 12 days, impurities by HPLC. Type of data set: physicochemical. Conditions: Levetiracetam examples, forced degradation conditions. As for the experimental part:
1.4 g of anhydrous di basic sodium phosphate in 1 liter of water. Adjusted to pH 3.5 with Orth phosphoric acid. Filter buffer with 0.45 um Nylon membrane filter paper. A mixture of 95 volumes of buffer solution and 5 volumes of Acetonitrile. To each 1 Liter of the mixture, add 1 g of sodium 1-hexanesulfonate monohydrate. […] Cool and make up to the volume with water. (Standard Stock Solution 2500 ppm). Next, Dilute 5 mL of standard solution a to 50 mL with water (Standard Solution (a) 250 ppm), further Dilute 5 mL of standard solution (a) to 100 mL with water (Standard Solution 12.5 ppm). […] Cool to room temperature and add 25 mL of acetonitrile to volumetric flask and make up the volume with water and centrifuge for 15 min @ 3500 RPM. filter the solution with 0.45 μm PVDF Millipore membrane syringe filter by discarding first 5 mL of filtrate. Dilute 5 mL of filtrate to 10 mL with water (2500 ppm). This group of examples is subjected to forced degradation testing conditions, where each example is formed into a tablet and then stored at 60 to 80 degrees C. and 75% relative humidity for a period of 5 or 12 days. At the end of the 5 days or 12 days each tablet is tested for its pH level and percent impurities. […]

A short description of data set [2]: Forced degradation testing of Levetiracetam blends (Table 8), Levetiracetam acid and total impurities by HPLC. It counts as physicochemical. The note with it: blend, 12 Day exposure, 60 C./75% RH.

Results on two molecules are retold here after patent publication US20220016035A1, “Extended Release Highly Loaded Drug Compositions” (Lubrizol Advanced Materials, Inc., priority 2017, published 2022).

Take `CC[C@@H](C(N)=O)N1CCCC1=O` [EX 31, Levetiracetam]: the “WT % IMPURITY” value in data set [1] is 0.02 WT %.

On to `CC[C@@H](C(N)=O)N1CCCC1=O` [EX 34, Levetiracetam], for which the “Levetiracetam Acid” value in data set [2] came out at 0.01.
